# Calls of active or inactive are those of the source. No cut-off for these calls is given here.
# Columns and labels:
# Rattus norvegicus [1] = assay: Positive allosteric modulation of mGlu2 receptor in Sprague-Dawley rat sleep-wake EEG paradigm model assessed as reduction in REM sleep at 3 mg/kg, po after 4 hrs by electroencephalogram analysis; format: functional, organism-based; parameters: dose 3 mg/kg
# [2] = Cmax in Sprague-Dawley rat at 10 mg/kg, po; format: ADME, organism-based; parameters: dose 10 mg/kg, route oral; conditions: in vivo
# [3] = Metabolic stability in human liver microsomes assessed as compound metabolized at 5 uM after 15 mins by MS/MS analysis in presence of NADPH; format: ADME; conditions: read-out: Drug metabolism
# Rattus norvegicus [4] = assay: Positive allosteric modulation of mGlu2 receptor in Sprague-Dawley rat sleep-wake EEG paradigm model assessed as effect on active wake stage at 3 mg/kg, po after 4 hrs by electroencephalogram analysis; format: functional, organism-based; parameters: dose 3 mg/kg
# [5] = AUC (0 to infinity) in Sprague-Dawley rat at 10 mg/kg, po; format: ADME, organism-based; parameters: time infinity, dose 10 mg/kg, route oral; conditions: plasma
# [6] = Clearance in Sprague-Dawley rat at 2.5 mg/kg, iv; format: ADME, organism-based; parameters: dose 2.5 mg/kg, route intravenous; conditions: in vivo
# [7] = Metabolic stability in rat liver microsomes assessed as compound metabolized at 5 uM after 15 mins by MS/MS analysis in presence of NADPH; format: ADME; conditions: read-out: Drug metabolism
# hERG (KCNH2) = hERG (KCNH2) (Homo sapiens, UniProt Q12809); assay: Inhibition of human ERG channel transfected in HEK293 cells at 3 uM by patch clamp technique; format: cell-based; conditions: HEK293 cells transfected with human ERG channel
# [8] = Tmax in Sprague-Dawley rat at 2.5 mg/kg, iv; format: ADME, organism-based; parameters: dose 2.5 mg/kg, route intravenous; conditions: in vivo
# [9] = target: T1, Metabotropic glutamate receptor 2 (Homo sapiens, UniProt Q14416); assay: Positive allosteric modulation of human mGlu2 receptor expressed in CHO cells assessed as potentiation of glutamate-induced effect incubated for 30 mins prior to [35S]GTPgamma addition measured after 30 mins relative to glutamate; format: functional, cell-based
# Target sequence in this assay (Q14416 19-872 limits assumed): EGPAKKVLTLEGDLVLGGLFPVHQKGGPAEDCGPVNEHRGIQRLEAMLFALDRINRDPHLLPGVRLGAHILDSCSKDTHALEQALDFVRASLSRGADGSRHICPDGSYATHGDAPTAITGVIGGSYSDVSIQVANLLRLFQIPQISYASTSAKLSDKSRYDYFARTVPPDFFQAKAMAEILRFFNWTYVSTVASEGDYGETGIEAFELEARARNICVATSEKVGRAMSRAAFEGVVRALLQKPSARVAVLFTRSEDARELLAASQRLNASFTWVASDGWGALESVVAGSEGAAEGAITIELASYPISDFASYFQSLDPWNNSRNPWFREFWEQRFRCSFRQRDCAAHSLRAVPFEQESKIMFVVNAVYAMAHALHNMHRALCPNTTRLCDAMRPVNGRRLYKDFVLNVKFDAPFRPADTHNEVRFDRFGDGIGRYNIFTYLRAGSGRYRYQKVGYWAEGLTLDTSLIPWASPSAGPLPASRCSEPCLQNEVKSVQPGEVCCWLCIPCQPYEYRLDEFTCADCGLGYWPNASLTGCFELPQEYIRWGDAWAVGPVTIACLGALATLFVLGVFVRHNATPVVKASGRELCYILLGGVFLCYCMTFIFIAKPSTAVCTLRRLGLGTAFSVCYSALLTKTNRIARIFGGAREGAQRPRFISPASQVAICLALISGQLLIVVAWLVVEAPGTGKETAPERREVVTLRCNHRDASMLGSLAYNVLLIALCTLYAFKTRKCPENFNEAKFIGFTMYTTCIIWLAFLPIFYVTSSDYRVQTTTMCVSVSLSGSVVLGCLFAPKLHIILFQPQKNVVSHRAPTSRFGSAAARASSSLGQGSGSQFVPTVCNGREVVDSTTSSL
# Rattus norvegicus [10] = assay: Positive allosteric modulation of mGlu2 receptor in Sprague-Dawley rat sleep-wake EEG paradigm model assessed as effect on deep sleep stage at 3 mg/kg, po after 4 hrs by electroencephalogram analysis; format: functional, organism-based; parameters: dose 3 mg/kg
# Rattus norvegicus [11] = assay: Positive allosteric modulation of mGlu2 receptor in Sprague-Dawley rat sleep-wake EEG paradigm model assessed as effect on light sleep stage at 3 mg/kg, po after 4 hrs by electroencephalogram analysis; format: functional, organism-based; parameters: dose 3 mg/kg
# Rattus norvegicus [12] = assay: Positive allosteric modulation of mGlu2 receptor in Sprague-Dawley rat sleep-wake EEG paradigm model assessed as effect on intermediate state at 3 mg/kg, po after 4 hrs by electroencephalogram analysis; format: functional, organism-based; parameters: dose 3 mg/kg
# [13] = Ratio of drug level in brain to plasma in Swiss mouse at 10 mg/kg, sc after 1 hr; format: ADME, organism-based; parameters: dose 10 mg/kg, route subcutaneous; conditions: brain and plasma, read-out: BPR
# [14] = Oral bioavailability in Sprague-Dawley rat at 10 mg/kg; format: ADME, organism-based; conditions: in vivo
# Rattus norvegicus [15] = assay: Positive allosteric modulation of mGlu2 receptor in Sprague-Dawley rat sleep-wake EEG paradigm model assessed as effect on passive wake stage at 3 mg/kg, po after 4 hrs by electroencephalogram analysis; format: functional, organism-based; parameters: dose 3 mg/kg
# Rattus norvegicus [16] = assay: Positive allosteric modulation of mGlu2 receptor in po dosed Sprague-Dawley rat assessed effect on sleep-wake EEG paradigm after 20 hrs by electroencephalogram analysis; format: functional; conditions: for minimal effective dose: Rattus norvegicus, Sprague-Dawley, po, 20 h, read-out: MED
# [17] = Elimination half life in Sprague-Dawley rat at 2.5 mg/kg, iv; format: ADME, organism-based; parameters: dose 2.5 mg/kg, route intravenous; conditions: in vivo, read-out: beta t1/2 (converted)
# [18] = target: T1, Metabotropic glutamate receptor 2; assay: Positive allosteric modulation of human mGlu2 receptor expressed in CHO cells assessed as potentiation of glutamate-induced effect incubated for 30 mins prior to [35S]GTPgamma addition measured after 30 mins; format: functional, cell-based
# Target sequence in this assay (Q14416 whole entry): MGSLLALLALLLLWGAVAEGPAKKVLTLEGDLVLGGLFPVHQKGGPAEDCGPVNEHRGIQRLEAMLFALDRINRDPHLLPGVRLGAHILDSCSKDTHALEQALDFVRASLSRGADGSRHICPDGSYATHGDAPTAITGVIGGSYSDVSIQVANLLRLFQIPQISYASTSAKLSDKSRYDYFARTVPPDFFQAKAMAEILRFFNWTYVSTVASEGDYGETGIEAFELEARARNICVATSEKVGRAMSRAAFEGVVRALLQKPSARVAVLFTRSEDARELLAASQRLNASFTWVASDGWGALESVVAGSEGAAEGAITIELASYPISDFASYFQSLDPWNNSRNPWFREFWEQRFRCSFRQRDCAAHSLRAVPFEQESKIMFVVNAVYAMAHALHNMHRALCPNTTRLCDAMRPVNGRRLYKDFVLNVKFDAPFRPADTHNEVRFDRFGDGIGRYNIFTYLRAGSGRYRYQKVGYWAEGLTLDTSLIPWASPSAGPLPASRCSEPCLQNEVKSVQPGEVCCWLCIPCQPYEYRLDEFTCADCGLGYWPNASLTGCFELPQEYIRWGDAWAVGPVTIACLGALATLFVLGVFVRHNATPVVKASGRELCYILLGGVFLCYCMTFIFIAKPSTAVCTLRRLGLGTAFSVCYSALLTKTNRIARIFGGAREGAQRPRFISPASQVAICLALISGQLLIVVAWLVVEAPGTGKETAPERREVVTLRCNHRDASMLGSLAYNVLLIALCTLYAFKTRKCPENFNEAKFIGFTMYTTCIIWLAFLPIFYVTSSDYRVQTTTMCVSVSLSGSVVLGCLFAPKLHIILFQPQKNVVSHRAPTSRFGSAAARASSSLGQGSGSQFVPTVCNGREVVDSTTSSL
# [19] = Volume of distribution at steady state in dog at 1 mg/kg, iv; format: ADME, organism-based, Canis lupus familiaris; parameters: dose 1 mg/kg, route intravenous; conditions: in vivo, read-out: Vdss
# [20] = Cmax in dog at 2.5 mg/kg, po; format: ADME, organism-based, Canis lupus familiaris; parameters: dose 2.5 mg/kg, route oral; conditions: in vivo
# [21] = target: Metabotropic glutamate receptor 6 (Rattus norvegicus) (UniProt P35349); assay: Binding affinity to rat mGlu6 receptor expressed in CHO cells assessed as calcium mobilization by [35S]GTPgamma binding assay; format: functional, cell-based
# [22] = AUC (0 to infinity) in dog at 2.5 mg/kg, po; format: ADME, organism-based, Canis lupus familiaris; parameters: time infinity, dose 2.5 mg/kg, route oral; conditions: plasma
# Rattus norvegicus [23] = assay: Positive allosteric modulation of mGlu2 receptor in po dosed Sprague-Dawley rat assessed free plasma drug level causing effect on sleep-wake EEG paradigm after 20 hrs by electroencephalogram analysis; format: functional
# [24] = target: Metabotropic glutamate receptor 5 (Homo sapiens) (UniProt P41594); assay: Binding affinity to human mGlu5 receptor expressed in HEK293 cells assessed as calcium mobilization by [35S]GTPgamma binding assay; format: functional, cell-based
# [25] = target: Metabotropic glutamate receptor 1 (Homo sapiens) (UniProt Q13255); assay: Binding affinity to human mGlu1 receptor expressed in HEK293 cells assessed as calcium mobilization by [35S]GTPgamma binding assay; format: functional, cell-based
# [26] = Apparent permeability from basolateral to apical side in human Caco2 cells; format: ADME, cell-based; conditions: Caco-2
# [27] = Oral bioavailability in dog at 2.5 mg/kg; format: ADME, organism-based, Canis lupus familiaris; conditions: in vivo
# [28] = Dissociation constant, pKa of the compound; format: physicochemical
# [29] = Lipophilicity, log P of the compound at pH 6.8; format: physicochemical; conditions: buffer
# [30] = target: Metabotropic glutamate receptor 4 (Homo sapiens) (UniProt Q14833); assay: Binding affinity to human mGlu4 receptor expressed in […] L929 cells assessed as calcium mobilization by [35S]GTPgamma binding assay; format: functional, cell-based
# [31] = Volume of distribution at steady state in Sprague-Dawley rat at 2.5 mg/kg, iv; format: ADME, organism-based; parameters: dose 2.5 mg/kg, route intravenous; conditions: in vivo, read-out: Vdss
# [32] = Elimination half life in dog at 1 mg/kg, iv; format: ADME, organism-based, Canis lupus familiaris; parameters: dose 1 mg/kg, route intravenous; conditions: in vivo, read-out: beta t1/2 (converted)
# [33] = Apparent permeability from apical to basolateral side in human Caco2 cells; format: ADME, cell-based; conditions: Caco-2
# [34] = target: Metabotropic glutamate receptor 3 (Homo sapiens) (UniProt Q14832); assay: Binding affinity to human mGlu3 receptor expressed in HEK293 cells assessed as calcium mobilization by [35S]GTPgamma binding assay; format: functional, cell-based
# [35] = Tmax in dog at 1 mg/kg, iv; format: ADME, organism-based, Canis lupus familiaris; parameters: dose 1 mg/kg, route intravenous; conditions: in vivo
# [36] = Clearance in dog at 1 mg/kg, iv; format: ADME, organism-based, Canis lupus familiaris; parameters: dose 1 mg/kg, route intravenous; conditions: in vivo
# hERG (KCNH2), sequence (Q12809 whole entry): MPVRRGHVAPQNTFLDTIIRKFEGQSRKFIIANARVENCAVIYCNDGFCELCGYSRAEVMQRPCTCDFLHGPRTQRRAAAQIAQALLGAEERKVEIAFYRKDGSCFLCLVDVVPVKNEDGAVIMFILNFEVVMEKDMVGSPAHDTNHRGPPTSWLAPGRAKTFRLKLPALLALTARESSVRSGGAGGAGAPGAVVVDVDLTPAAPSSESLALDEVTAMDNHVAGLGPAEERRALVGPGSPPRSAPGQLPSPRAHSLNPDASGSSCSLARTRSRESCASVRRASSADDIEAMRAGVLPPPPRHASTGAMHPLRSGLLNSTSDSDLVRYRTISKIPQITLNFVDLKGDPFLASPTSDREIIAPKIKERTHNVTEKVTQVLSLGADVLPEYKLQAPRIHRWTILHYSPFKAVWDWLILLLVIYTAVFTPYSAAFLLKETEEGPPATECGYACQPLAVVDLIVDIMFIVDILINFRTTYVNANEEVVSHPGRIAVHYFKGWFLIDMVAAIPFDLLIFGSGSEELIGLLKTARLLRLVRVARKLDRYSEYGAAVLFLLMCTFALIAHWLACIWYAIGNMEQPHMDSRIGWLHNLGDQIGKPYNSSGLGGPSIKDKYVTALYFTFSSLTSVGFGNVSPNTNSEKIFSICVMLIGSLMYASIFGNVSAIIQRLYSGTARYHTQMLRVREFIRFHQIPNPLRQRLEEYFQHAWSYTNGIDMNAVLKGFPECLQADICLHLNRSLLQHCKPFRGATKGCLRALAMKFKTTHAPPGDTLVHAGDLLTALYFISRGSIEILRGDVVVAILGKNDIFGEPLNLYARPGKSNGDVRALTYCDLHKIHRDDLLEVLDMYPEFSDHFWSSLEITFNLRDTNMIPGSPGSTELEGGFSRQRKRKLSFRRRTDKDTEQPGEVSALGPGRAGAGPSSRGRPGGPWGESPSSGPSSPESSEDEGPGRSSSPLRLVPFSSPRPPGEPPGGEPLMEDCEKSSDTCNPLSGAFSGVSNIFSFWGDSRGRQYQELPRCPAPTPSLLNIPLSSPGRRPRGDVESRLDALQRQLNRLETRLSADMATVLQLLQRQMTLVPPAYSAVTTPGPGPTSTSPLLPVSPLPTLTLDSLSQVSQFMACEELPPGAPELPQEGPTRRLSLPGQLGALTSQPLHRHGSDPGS
# Metabotropic glutamate receptor 6 (Rattus norvegicus), sequence (P35349 whole entry): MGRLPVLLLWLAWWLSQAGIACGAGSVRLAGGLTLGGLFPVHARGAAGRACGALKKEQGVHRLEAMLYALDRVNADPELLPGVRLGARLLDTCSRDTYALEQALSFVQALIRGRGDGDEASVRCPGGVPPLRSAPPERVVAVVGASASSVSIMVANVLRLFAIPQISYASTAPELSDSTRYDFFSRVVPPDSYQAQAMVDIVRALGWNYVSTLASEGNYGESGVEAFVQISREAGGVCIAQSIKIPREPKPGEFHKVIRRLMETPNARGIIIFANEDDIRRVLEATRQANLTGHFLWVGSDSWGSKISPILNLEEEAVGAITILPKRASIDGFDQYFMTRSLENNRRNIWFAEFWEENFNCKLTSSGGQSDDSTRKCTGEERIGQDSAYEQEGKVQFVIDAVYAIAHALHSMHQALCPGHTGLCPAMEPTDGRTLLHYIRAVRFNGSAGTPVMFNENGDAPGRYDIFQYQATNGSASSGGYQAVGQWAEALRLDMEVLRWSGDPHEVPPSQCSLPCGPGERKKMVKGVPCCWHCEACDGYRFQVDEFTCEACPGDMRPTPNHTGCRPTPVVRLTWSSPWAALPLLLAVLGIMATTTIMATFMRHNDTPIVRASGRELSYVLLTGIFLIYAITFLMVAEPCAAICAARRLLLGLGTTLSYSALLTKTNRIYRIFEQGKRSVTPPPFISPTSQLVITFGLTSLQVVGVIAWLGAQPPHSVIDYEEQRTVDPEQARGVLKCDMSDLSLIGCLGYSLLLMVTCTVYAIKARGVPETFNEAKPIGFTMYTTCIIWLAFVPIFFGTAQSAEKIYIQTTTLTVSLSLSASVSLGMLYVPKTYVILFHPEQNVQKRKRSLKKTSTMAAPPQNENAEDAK
# Metabotropic glutamate receptor 4 (Homo sapiens), sequence (Q14833 whole entry): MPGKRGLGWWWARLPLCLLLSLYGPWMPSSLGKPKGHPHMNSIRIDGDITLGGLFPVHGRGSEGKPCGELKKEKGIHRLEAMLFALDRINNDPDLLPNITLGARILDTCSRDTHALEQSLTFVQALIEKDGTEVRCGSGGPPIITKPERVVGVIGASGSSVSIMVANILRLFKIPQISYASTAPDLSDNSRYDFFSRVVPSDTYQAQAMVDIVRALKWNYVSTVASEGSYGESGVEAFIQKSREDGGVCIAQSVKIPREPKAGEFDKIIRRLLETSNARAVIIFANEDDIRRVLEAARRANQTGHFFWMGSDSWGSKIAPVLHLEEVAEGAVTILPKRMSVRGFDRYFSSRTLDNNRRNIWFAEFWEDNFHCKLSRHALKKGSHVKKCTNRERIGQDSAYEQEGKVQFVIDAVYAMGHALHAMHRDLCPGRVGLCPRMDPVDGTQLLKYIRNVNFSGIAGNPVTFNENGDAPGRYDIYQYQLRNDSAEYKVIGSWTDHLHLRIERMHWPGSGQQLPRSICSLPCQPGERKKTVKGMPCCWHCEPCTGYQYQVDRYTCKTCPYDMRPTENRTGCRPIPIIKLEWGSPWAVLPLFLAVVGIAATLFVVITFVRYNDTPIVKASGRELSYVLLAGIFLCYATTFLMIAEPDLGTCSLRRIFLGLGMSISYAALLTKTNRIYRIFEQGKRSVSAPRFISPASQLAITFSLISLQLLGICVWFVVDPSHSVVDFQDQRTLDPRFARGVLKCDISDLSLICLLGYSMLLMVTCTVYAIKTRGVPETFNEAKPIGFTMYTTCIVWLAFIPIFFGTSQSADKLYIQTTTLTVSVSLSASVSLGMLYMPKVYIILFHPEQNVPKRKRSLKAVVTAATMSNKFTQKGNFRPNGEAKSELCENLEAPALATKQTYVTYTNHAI
Structure (SMILES),Activity (Rattus norvegicus [1]),Cmax [2] [ng/mL],"metabolised at 0.25 h, 5 µM [3] [%]",Activity (Rattus norvegicus [4]),AUC(0-inf) [5] [ng·h/mL],clearance [6] [mL/min/kg],"metabolised at 0.25 h, 5 µM [7] [%]",inhibition at 3 µM (hERG (KCNH2)) [%],Tmax [8] [h],Emax [9] [%],Activity (Rattus norvegicus [10]),Activity (Rattus norvegicus [11]),Activity (Rattus norvegicus [12]),Kp at 1 h [13],bioavailability [14] [%],Activity (Rattus norvegicus [15]),MEC (Rattus norvegicus [16]) [ng/mL],minimal effective dose (Rattus norvegicus [16]) [mg/kg],half-life [17] [h],EC50 [18] [nM],other results
CC(C)Cn1ccc(N2CCC(c3ccccc3)CC2)c(Cl)c1=O,Active,1360,12,inactive,3460,13,31,24,0.7,260,inactive,inactive,inactive,0.8,25,inactive,407,3,2.6,,
O=c1c(Cl)c(N2CCC(c3ccccc3)CC2)ccn1CC1CC1,inactive,986,17,inactive,2310,24,30,51,0.5,259,inactive,inactive,inactive,0.9,34,inactive,>986,> 10,3.5,170,
N#Cc1c(N2CCC(c3ccccc3)CC2)ccn(CC2CC2)c1=O,Active,1410,25,inactive,4350,18,44,58,0.5,309,inactive,inactive,inactive,0.3,51,inactive,420,3,2.1,151,
CCCCn1ccc(N2CCC(c3ccccc3)CC2)c(Cl)c1=O [JNJ-40411813],Active,938,23,inactive,2250,23,53,,0.5,,inactive,inactive,inactive,1,31,inactive,281,3,2.3,,Vd [19]: 1.8 L/kg; Cmax [20]: 373 ng/mL; Activity [21]: inactive; AUC(0-inf) [22]: 743 ng·h/mL; fMEC (Rattus norvegicus [23]): 0.9 ng/mL; Activity [24]: inactive; Activity [25]: inactive; Papp B→A [26]: 6 ×10⁻⁶ cm/s; bioavailability [27]: 20%; pKa [28]: < 2; logD [29]: 4.6; Activity [30]: inactive; Vd [31]: 2.3 L/kg; half-life [32]: 3.7 h; Papp A→B [33]: 12 ×10⁻⁶ cm/s; Activity [34]: inactive; Tmax [35]: 0.5 h; clearance [36]: 23 mL/min/kg
